Source: patent US20240109852A1, “Ferroptosis-HDAC Inhibitor Hybrid Anticancer Agents” (The University of Toledo, priority 2022, published 2024)
Like-named read-outs stand apart in the source and are kept apart here.

How the values were obtained:
[1] = tested on: hTERT-immortalized RPE cells (retinal pigment epithelial cells); experiment: Cell viability assay (methylene blue staining), RPE normal cells; assay type: cell-based, human
Protocol: (§2) Cell viability was assessed using methylene blue staining: cells were plated at 5000/well in 96 well plates (n=3) respectively and treated the next day. Three days after treatment cells were fixed/stained in methylene blue saturated in 50% ethanol for 30 min at RT. Plates were washed with excess water to wash off extra dye.

NCI-H522 cells = experiment: Time-lapse microscopy of cell death in NCI-H522 cells; assay type: cell-based, human; conditions: for time from initiation of ferroptosis until most/all cells were dead: CETZOLE-1 20 μM (most cells), HY-1 5 μM (all cells); for time of initiation of ferroptosis after treatment: CETZOLE-1 20 μM, HY-1 5 μM
Protocol: For time lapse imaging, NCI-H522 cells were plated at ˜70% density and left overnight to adhere and pre-equilibrate to 10% CO2. The next day cells were treated with DMSO or inhibitors, and the flask was maintained sealed. Flasks were placed on a 37° C. heated stage on an inverted microscope. Images were captured every 12 min and for a total of 300 images using a ×40 microscope objective and an Olympus C740 digital camera controlled by AmScope software. Image analysis was done using Image J. For the Kaplan-Maier graphs at least 100 cells were counted and the event of cell death was measured on a time frame of either 1 h or 0.2 h.

[2] = tested on: PC-12 (pheochromocytoma) cells; experiment: MTT cytotoxicity on undifferentiated and differentiated PC-12 cells; assay type: cell-based; conditions: both non-differentiated and NGF-differentiated states
Protocol: Pheochromocytoma (PC-12) cells were grown on poly-D-lysine coated plates and cultured in DMEM/F12 medium (HyClone, Thermo Scientific) containing 5% fetal bovine serum, 5% horse serum, and 1% penicillin-streptomycin. Cells were maintained in a 37° C. incubator with a 5% CO2 atmosphere. Cells were seeded at a density of 15,000 cells per well in 96 well plates for 36 hr before treatment with the test compounds. The MTT assay was performed after 24 hr of treatment.
Pheochromocytoma (PC-12) cells were seeded on poly-D-lysine coated plates containing neuron differentiation medium (100 ng nerve growth factor, DMEM/F12, 5% fetal bovine serum, 5% horse serum, and 1% penicillin-streptomycin) and grown for 5 days to differentiate to neurons. Cells were maintained in a 37° C. incubator with a 5% CO2 atmosphere. Cells were trypsinized, and seeded at a density of 15,000 cells/well in 96 well plates with neuron differentiation medium for 36 hr before treatment with the test compounds. The MTT assay was performed after 24 hr of treatment.

[3] = tested on: SH-SY5Y cell line (human neuroblastoma); experiment: MTT cell viability assay on SH-SY5Y neuronal cells; assay type: cell-based; conditions: for effect on neuronal cells (neurotoxicity), SH-SY5Y viability: 0.5×IC50, 1×IC50, 2×IC50 of the corresponding control on H522
Protocol: Human neuroblastoma cells (SH-SY5Y) were grown on poly-D-lysine coated plates and cultured in DMEM/F12 medium (HyClone, Thermo Scientific) containing 10% fetal bovine serum and 1% penicillin-streptomycin. Cells were maintained in a 37° C. incubator with a 5% CO2 atmosphere. Cells were seeded at a density of 15,000 cells in 96 well plates for 36 hr before treatment of drugs. […] G4102) according to the manufacturer's instructions. Cells were treated with amide series analogs for 24 hrs. Briefly, the cells were incubated with MTT reagent for 2 h at 37° C. incubator. Then, the solubilization/stop solution was added to solubilize the formazan products, incubated for 1 hr, and absorbance at 570 was measured using micro-plate reader (SynergyH1, BioTek, USA). DMSO was used a vehicle control. The experimental data represent the means±SD (*P<0.05) of triplicates from three separate experiments. The statistical significance was determined by one-way ANOVA and significant differences P<0.05, P<0.01, P<0.001, and P<0.0001 are symbolized as *, **, ***, and ****, respectively.

[4] = tested on: NCI-60 human tumor cell lines; experiment: NCI-60 five dose assay, whole panel; assay type: cell-based
[5] = tested on: LOXIMVI (melanoma cell line); experiment: NCI-60 five dose assay, LOXIMVI; assay type: cell-based; conditions: Homo sapiens, LOX IMVI, read-out: GI50, LOXIMVI
[6] = tested on: lipid peroxides in NCI-H522 cells; experiment: C11-BODIPY lipid peroxidation assay (flow cytometry); assay type: cell-based, human; conditions: NCI-H522, 10 μM, within 6 hours of treatment
Protocol: NCI-H522 cells (˜70% density) were plated on 7 cm dishes and let overnight to adhere. […] After 6 h, cells were washed with 1×PBS and collected by trypsinization and centrifugation. The cells were washed once with 1×PBS and resuspended in PBS containing 2% FBS. Cells were analyzed using a BD LSR Fortessa FACScanner and FlowJo software. For each sample 20×10^3 cells were analyzed.

[7] = tested on: IGROV-1 (ovarian cancer cell line); experiment: NCI-60 five dose assay, IGROV-1; assay type: cell-based; conditions: Homo sapiens
[8] = tested on: WI-38 cells (normal human lung fibroblasts); experiment: Cell viability assay (methylene blue staining), WI-38 normal cells; assay type: cell-based; conditions: concentration of therapeutic relevance (2 μM), mesenchymal system
Protocol: as §2

[9] = tested on: NCI-60 human tumor cell lines; experiment: NCI-60 one dose assay, whole panel; assay type: cell-based; conditions: compared to other hybrids, HDAC controls and SAHA
[10] = tested on: RPMI-8226 (leukemia cell line); experiment: NCI-60 five dose assay, RPMI-8226; assay type: cell-based; conditions: Homo sapiens, RPMI-8226, read-out: GI50, RPMI-8226
[11] = tested on: SF-539 cell line (CNS cancer); experiment: NCI-60 five dose assay, SF-539; assay type: cell-based; conditions: Homo sapiens
[12] = tested on: DU-145 (prostate cancer cell line); experiment: NCI-60 five dose assay, DU-145; assay type: cell-based; conditions: Homo sapiens
[13] = tested on: NCI-H23 (NSC lung cancer cell line); experiment: NCI-60 five dose assay, NCI-H23; assay type: cell-based; conditions: Homo sapiens
[14] = tested on: PC-3 (prostate cancer cell line); experiment: NCI-60 five dose assay, PC-3; assay type: cell-based; conditions: Homo sapiens, read-out: GI50, PC-3
[15] = tested on: HCT116 human colorectal carcinoma cells; experiment: Cell viability assay (methylene blue staining), HCT-116; assay type: cell-based; conditions: HCT-116, 72 h, read-out: IC50 ± SD (n = 3) on HCT-116 cell line
Protocol: as §2

[16] = tested on: NCI-H522 human lung cancer cells; experiment: Cell viability assay (methylene blue staining), NCI-H522; assay type: cell-based; conditions: NCI-H522, 72 h, read-out: IC50 ± SD (n = 3) on NCI-H522 cell line
Protocol: as §2

[17] = tested on: acetyl-H3 (K9) (histones, HDAC class I substrate); experiment: Western blot, acetyl-H3 (K9) in NCI-H522 cells; assay type: cell-based, human; conditions: NCI-H522, concentration of 5 μM
Text: (§1) Bound antibodies were detected using enhanced chemiluminescence (Biorad).

[18] = tested on: acetyl tubulin (class II, HDAC-6 substrate); experiment: Western blot, acetyl tubulin in NCI-H522 cells; assay type: cell-based, human; conditions: NCI-H522, concentration of 5 μM
Text: as §1

[19] = tested on: DU-145 cells (prostate cancer); conditions: one dose; SAHA data from the public data base of NCI; cited from earlier work
[20] = tested on: HS578 (breast cancer cell line); experiment: NCI-60 five dose assay, HS578; assay type: cell-based; conditions: Homo sapiens
[21] = tested on: NCI-H23 cell line (NSC-Lung cancer); conditions: one dose; SAHA data from the public data base of NCI; cited from earlier work

Structure (SMILES): C#Cc1nc(C2=C(C)C(O)CC2)cs1 (centres unmarked) [CETZOLE-1, reference compound]
- IC50 ([1]; normal RPE epithelial cells, FBS media (FIGS. 11A, 11C), read-out: IC50 on RPE (selectivity study)): > 30 µM
- time from initiation of ferroptosis until most/all cells were dead (NCI-H522 cells): ≤ 8 h
- time of initiation of ferroptosis after treatment (NCI-H522 cells): approximately 12 hours

Structure (SMILES): C#Cc1nc(C(=O)NCCCCCCC(=O)OC)cs1 [FC-1, Methyl 7-(2-ethynylthiazole-4-carboxamido)heptanoate]
- sensitivity of differentiated and undifferentiated PC-12 cells [2]: resistant
- effect on neuronal cells (neurotoxicity), SH-SY5Y viability [3]: significant neurotoxicity

Structure (SMILES): O=C(CCCCCCNC(=O)c1csc(Br)n1)NO [HC-1, 2-Bromo-N-(7-(hydroxyamino)-7-oxoheptyl)thiazole-4-carboxamide]
- GI50 ([4]; read-out: average GI50): 1510 nM
- effect on neuronal cells (neurotoxicity), SH-SY5Y viability [3]: very mild toxicity

Structure (SMILES): C#Cc1nc(C(=O)NCCCCCCC(=O)NO)cs1 [HY-1, 2-Ethynyl-N-(7-(hydroxyamino)-7-oxoheptyl)thiazole-4-carboxamide]
- GI50 [5]: 20 nM
- GI50 ([4]; read-out: GI50 values as low as): ≥ 20 nM
- GI50 ([4]; read-out: average GI50): 850 nM
- toxicity on normal cells (RPE) ([1]; concentration of therapeutic relevance (2 μM), epithelial system): no toxicity was observed on the normal cells
- lipid peroxide levels (oxidized C11-BODIPY 581/591) [6]: increased levels of lipid peroxides
- GI50 ([7]; IGROV-1, read-out: GI50, IGROV-1): 570 nM
- toxic effects on normal cells (WI-38) [8]: no toxic effects on normal cells
- cytotoxicity profile in the NCI-60 screen [9]: best cytotoxicity profile
- sensitivity of differentiated and undifferentiated PC-12 cells [2]: behaved like the HDAC control HC-1
- neurotoxic effects, SH-SY5Y viability ([3]; concentrations of therapeutic relevance (2.32 μM)): no neurotoxic effects
- GI50 [10]: 350 nM
- GI50 ([11]; SF-539, read-out: GI50, SF-539): 1000 nM
- time from initiation of ferroptosis until most/all cells were dead (NCI-H522 cells): ≤ 2 h
- time of initiation of ferroptosis after treatment (NCI-H522 cells): 8 h
- GI50 ([12]; DU-145, read-out: GI50, DU-145): 360 nM
- GI50 ([13]; NCI-H23, read-out: GI50, NCI-H23): 780 nM
- GI50 [14]: 2000 nM

Structure (SMILES): C#Cc1nc(/C=C\CCCCCC(=O)NO)cs1 [HY-2, (Z)-8-(2-ethynylthiazol-4-yl)-N-hydroxyoct-7-enamide]
- GI50 ([4]; read-out: average GI50): 2180 nM
- IC50 [15]: 1.19 µM
- IC50 [16]: 1070 nM

Structure (SMILES): C#Cc1nc(/C=C/CCCCCC(=O)NO)cs1 [HY-3, (E)-8-(2-ethynylthiazol-4-yl)-N-hydroxyoct-7-enamide]
- GI50 ([4]; read-out: average GI50): 3390 nM
- IC50 [15]: 4.96 µM
- IC50 [16]: 1590 nM

Structure (SMILES): C#Cc1nc(/C=C/C=C/C(=O)NO)cs1 [HY-4, (2E,4E)-5-(2-ethynylthiazol-4-yl)-N-hydroxypenta-2,4-dienamide]
- cytotoxicity profile in the NCI-60 screen [9]: worst cytotoxicity profile
- effect on neuronal cells (neurotoxicity), SH-SY5Y viability [3]: not showing attenuated neurotoxicity

Structure (SMILES): C#Cc1nc(/C=C/C(=O)NO)cs1 [HY-5, (E)-3-(2-ethynylthiazol-4-yl)-N-hydroxyacrylamide]
- GI50 ([4]; read-out: average GI50): 2470 nM
- H3 hyperacetylation at 5 μM [17]: did not show any H3 hyperacetylation
- tubulin hyperacetylation at 5 μM [18]: tubulin hyperacetylation

Structure (SMILES): COC(=O)CCCCCCNC(=O)c1csc(Br)n1 [NC-1, Methyl 7-(2-bromothiazole-4-carboxamido)heptanoate]
- effect on neuronal cells (neurotoxicity), SH-SY5Y viability [3]: no effect

Structure (SMILES): O=C(CCCCCCC(=O)Nc1ccccc1)NO [SAHA]
- GI50 ([5]; five dose assay): 1250 nM
- GI50 ([4]; five dose assay, mean over approximately sixty cell lines, read-out: average GI50): 1210 nM
- Growth %, DU-145 (NCI public data base) [19]: 3.5%
- GI50 ([7]; IGROV-1, five dose assay, read-out: GI50, IGROV-1): 2000 nM
- GI50 [20]: 2000 nM
- GI50 ([11]; SF-539, five dose assay, read-out: GI50, SF-539): 2000 nM
- time after treatment at which cells were still alive (NCI-H522 cells; SAHA 5 μM): ≥ 60 h
- GI50 ([12]; DU-145, five dose assay, read-out: GI50, DU-145): 1250 nM
- GI50 ([13]; NCI-H23, five dose assay, read-out: GI50, NCI-H23): 2000 nM
- Growth %, NCI-H23 (NCI public data base) [21]: 3.30%
- GI50 ([14]; five dose assay): 1580 nM
